In US11976083B2, “Inhibitors of peptidylarginine deiminases” (Gilead Sciences, Inc., priority 2020, dated 2024):

Target: T1, human PAD4 (Homo sapiens, UniProt Q9UM07)
T1 construct: human PAD4 (NM_012387), A2-P663, was PCR amplified; His-SUMO (N, cleaved yes); made in house; host or cells: E. coli BL21(DE3)
Assay: In vitro PAD4 BAEE biochemical assay
Conditions: BAEE substrate 3 mM, 5 nM PAD4, 2 mM calcium chloride; geometric mean of multiple experiments
Procedure, shortened: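 Recombinant human PAD4 (5 nM final) with 2 mM CaCl2 was preincubated with compound 30 min at 25 °C in MOPS buffer pH 7.6, then reacted with 3 mM BAEE for 2 h at 25 °C. After EDTA stop, released ammonia was detected by o-phthalaldehyde/DTT fluorescence (ex 405/em 535 nm); IC50 from four-parameter fit, geometric mean.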

T1 sequence (Q9UM07 2-663): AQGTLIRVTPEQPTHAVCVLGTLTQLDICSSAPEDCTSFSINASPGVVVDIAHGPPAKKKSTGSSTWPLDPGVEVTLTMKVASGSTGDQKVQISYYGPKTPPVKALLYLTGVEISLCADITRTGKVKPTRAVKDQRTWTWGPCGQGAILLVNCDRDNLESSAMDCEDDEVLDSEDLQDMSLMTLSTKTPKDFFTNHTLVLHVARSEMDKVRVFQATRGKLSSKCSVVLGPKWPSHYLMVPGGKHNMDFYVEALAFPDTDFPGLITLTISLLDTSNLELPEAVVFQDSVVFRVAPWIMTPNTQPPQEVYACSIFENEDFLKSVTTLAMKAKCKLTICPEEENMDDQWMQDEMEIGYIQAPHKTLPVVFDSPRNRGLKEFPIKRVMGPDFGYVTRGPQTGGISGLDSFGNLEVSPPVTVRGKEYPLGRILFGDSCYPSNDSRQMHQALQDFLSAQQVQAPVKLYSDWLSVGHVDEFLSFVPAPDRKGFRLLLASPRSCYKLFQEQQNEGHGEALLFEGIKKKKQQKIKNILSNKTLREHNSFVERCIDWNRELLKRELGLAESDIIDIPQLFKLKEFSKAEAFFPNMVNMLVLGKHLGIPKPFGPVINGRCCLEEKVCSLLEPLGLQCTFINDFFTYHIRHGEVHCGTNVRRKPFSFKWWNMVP

Row | Structure (SMILES) | IC50
1 | COc1cc(C(=O)N2[C@H]3CC[C@@H]2[C@H](N)C3)cc2nc(-c3cc4ccc5nc4n3CCCCCC[C@@H](C)C(=O)N[C@@H]5C)c(C)n12 [Example 122, (8~{R},11~{R})-17-[7-[(1~{R},2~{R},4~{S})-2-amino-7-azabicyclo[2.2.1]heptane-7-carbonyl]-5-methoxy-3-methyl-imidazo[1,2-a]pyridin-2-yl]-8,11-dimethyl-1,10,19-triazatricyclo[10.5.2.0^{15,18}]nonadeca-12(19),13,15(18),16-tetraen-9-one] | 16 nM
2 | COc1cc(C(=O)N2[C@H]3CC[C@@H]2[C@H](N)C3)cc2nc(-c3cc4ccc5nc4n3CCCCCCCC(=O)NC5)n(C)c12 [Example 255, 17-[5-[(1~{R},2~{R},4~{S})-2-amino-7-azabicyclo[2.2.1]heptane-7-carbonyl]-7-methoxy-1-methyl-benzimidazol-2-yl]-1,10,19-triazatricyclo[10.5.2.0^{15,18}]nonadeca-12(19),13,15(18),16-tetraen-9-one] | 59 nM
3 | COc1cc(C(=O)N2CCC[C@@H](N)C2)cc2nc(-c3cc4ccc5cc4n3CCCCC[C@H]3C[C@@H]3C(=O)N[C@@H]5C)n(C)c12 [Example 164, (2~{R},5~{S},7~{S})-14-[5-[(3~{R})-3-aminopiperidine-1-carbonyl]-7-methoxy-1-methyl-benzimidazol-2-yl]-2-methyl-3,13-diazatetracyclo[11.5.2.0^{5,7}.0^{16,20}] icosa-1(19),14,16(20),17-tetraen-4-one] | 33 nM
4 | COc1cc(C(=O)N2CCC[C@@H](N)C2)cc2nc(-c3cc4ccc5nc4n3C[C@H]3C[C@H]3CC[C@H]3C[C@@H]3C(=O)N[C@@H]5C)n(C)c12 (single isomer, unassigned) [Example 116, (3˜{S},5˜{R},8˜{S},10˜{S},13˜{R})-19-[5-[(3˜{R})-3-aminopiperidine-1-carbonyl]-7-methoxy-1-methyl-benzimidazol-2-yl]-13-methyl-1,12,21-triazapentacyclo[12.5.2.0^{3,5}.0^{8,10}.0^{17,20}]henicosa-14(21),15,17(20),18-tetraen-11-one] | 255 nM
5 | COc1cc(C(=O)N2[C@H]3CC[C@@H]2[C@H](N)C3)cc2nc(-c3cc4ccc5nc4n3CCCCCn3ccc(n3)C(=O)N[C@@H]5C)c(C)n12 [Example 33, (2~{R})-15-[7-[(1~{R},2~{R),4~{S})-2-amino-7-azabicyclo[2.2.1]heptane-7-carbonyl]-5-methoxy-3-methyl-imidazo[1,2-a]pyridin-2-yl]-2-methyl-3,8,14,20,22-pentazatetracyclo[12.5.2.1^{5,8}.0^{17,21}] docosa-1(20),5(22),6,15,17(21),18-hexaen-4-one] | 248 nM
6 | C[C@H]1NC(=O)c2cccnc2CCCCCn2c(-c3nc4cc(C(=O)N[C@H]5CNCC[C@@H]5F)c(F)cc4n3C)cc3ccc1nc32 [Example 401, 6-fluoro-~{N}-[(3~{S},4~{S})-4-fluoro-3-piperidyl]-1-methyl-2-[(2~{R})-2-methyl-4-oxo-3,9,16,22-tetrazatetracyclo[14.5.2.0^{5,10).0^{19,23}]tricosa-1(22),5(10),6,8,17,19(23),20-heptaen-17-yl]benzimidazole-5-carboxamide] | 90 nM
7 | COc1cc(C(=O)N2CCC[C@@H](N)C2)cc2nc(-c3cc4ccc5cc4n3CCCCCCC(=O)Nc3ccccc3-5)n(C)c12 [Example 47, 17-[5-[(3~{R})-3-aminopiperidine-1-carbonyl]-7-methoxy-1-methyl-benzimidazol-2-yl]-8,16-diazatetracyclo[14.5.2.0^{2,7}.0^{19,23}] tricosa-1(22),2,4,6,17,19(23),20-heptaen-9-one] | 458 nM
8 | COc1cc(C(=O)N2[C@H]3CC[C@@H]2[C@H](N)C3)cc2nc(-c3cc4ccc5nc4n3CCCCCCCC(=O)NC5(C)C)n(C)c12 [Example 251, 17-[5-[(1~{R},2~{R},4~{S})-2-amino-7-azabicyclo[2.2.1]heptane-7-carbonyl]-7-methoxy-1-methyl-benzimidazol-2-yl]-11,11-dimethyl-1,10,19-triazatricyclo[10.5.2.0^{15,18}]nonadeca-12(19),13,15(18),16-tetraen-9-one] | 74 nM

More lines, now with the values ahead:

Row | IC50 | Structure (SMILES)
9 | 215 nM | COc1cc(C(=O)N2CCC(OC3CC3)C(N)C2)cc2nc(-c3cc4ccc5nc4n3CCCCCCC(C)(C)C(=O)N[C@@H]5C)n(C)c12 (stereo partly drawn) [Example 527, (11~{R})-17-[5-[3-amino-4-(cyclopropoxy)piperidine-1-carbonyl]-7-methoxy-1-methyl-benzimidazol-2-yl]-8,8,11-trimethyl-1,10,19-triazatricyclo[10.5.2.0^ {15,18}]nonadeca-12(19),13,15(18), 16-tetraen-9-one]
10 | 125 nM | COc1cc(C(=O)N2CC[C@@H](OC)[C@@H](N)C2)cc2nc(-c3cc4ccc5nc4n3CCCCCc3nc4ccccc4nc3C(=O)N[C@@H]5C)n(C)c12 [Example 414, (2~{R})-21-[5-[(3~{S},4~{R})-3-amino-4-methoxy-piperidine-1-carbonyl]-7-methoxy-1-methyl-benzimidazol-2-yl]-2-methyl-3,6,13,20,26-pentazapentacyclo[18.5.2.0^{5,14).0^{7, 12}.0^{23,27}]heptacosa-1(26),5(14),6,8,10,12,21,23(27),24-nonaen-4-one]
11 | 370 nM | C[C@H]1NC(=O)C(C)(C)CCCCCCn2c(-c3nc4cc(C(=O)N[C@H]5CNCC[C@@H]5F)c(F)cc4n3CC(F)(F)F)cc3ccc1nc32 [Example 419, 6-fluoro-~{N}-[(3~{S},4~{S})-4-fluoro-3-piperidyl]-1-(2,2,2-trifluoroethyl)-2-[(11~{R})-8,8,11-trimethyl-9-oxo-1,10,19-triazatricyclo[10.5.2.0^{15,18}]nonadeca-12(19),13,15(18),16-tetraen-17-yl]benzimidazole-5-carboxamide]
12 | 40 nM | C[C@H]1NC(=O)c2nccnc2CCCCCn2c(-c3nc4cc(C(=O)N5C[C@H](N)[C@@H]6CC[C@H]5C6)c(F)c(F)c4n3C3CC3)cc3ccc1nc32 [Example 877, (2~{R})-17-[5-[(1~{S},4~{R}, 5~{})-4-amino-2-azabicyclo [3.2.1]octane-2-carbonyl]-1-cyclopropyl-6,7-difluoro-benzimidazol-2-yl]-2-methyl-3,6,9,16,22-pentazatetracyclo [14.5.2.0^{5,10}.0^{19,23}] tricosa-1(22),5(10),6,8,17,19(23), 20-heptaen-4-one]
13 | 19 nM | COc1cc(C(=O)N2C[C@H](N)[C@@H]3CC[C@H]2C3)cc2nc(-c3cc4ccc5nc4n3CCCCC[C@]3(F)C[C@H]3C(=O)N[C@@H]5C)n(C)c12 [Example 451, (2~{R},5~{S},7~{S})-14-[5-[(1~{S},4~{R},5~{R})-4-amino-2-azabicyclo[3.2.1]octane-2-carbonyl]-7-methoxy-1-methyl-benzimidazol-2-yl]-7-fluoro-2-methyl-3,13,19-triazatetracyclo[11.5.2.0^{5,7}.0^{16,20}] icosa-1(19),14,16(20),17-tetraen-4-one]
14 | 93 nM | COCCn1c(-c2cc3ccc4nc3n2CCCCC[C@@H]2C[C@H]2C(=O)N[C@@H]4C)nc2cc(C(=O)N3CC[C@@H](OC)[C@@H](N)C3)cc(F)c21 [Example 436, (2~{R},5~{R},7~{R})-14-[5-[(3~{S},4~{R})-3-amino-4-methoxy-piperidine-1-carbonyl]-7-fluoro-1-(2-methoxyethyl)benzimidazol-2-yl]-2-methyl-3,13,19-triazatetracyclo[11.5.2.0^{5,7}.0^{16,20}] icosa-1(19),14,16(20),17-tetraen-4-one]
15 | 59 nM | C[C@H]1NC(=O)c2cc3ccccc3nc2CCCCCn2c(-c3nc4cc(C(=O)N5C[C@H](N)[C@@H]6CC[C@H]5C6)c(F)c(F)c4n3C3CC3)cc3ccc1nc32 [Example 754, (2~{R})-21-[5-[(1~{S},4~ {R},5~{R})-4-amino-2-azabicyclo[3.2.1]octane-2-carbonyl]-1-cyclopropyl-6,7-difluoro-benzimidazol-2-yl]-2-methyl-3,13,20,26-tetrazapentacyclo[18.5.2.0^ {5,14}.0^{7,12}.0^{23,27}] heptacosa-1(26),5(14),6,8, 10,12,21,23(27),24-nonaen-4-one]
16 | 76 nM | C[C@H]1NC(=O)[C@@H]2C[C@@H]2C/C=C\CCn2c(-c3nc4cc(C(=O)N[C@H]5CNCC[C@@H]5F)c(F)cc4n3C)cc3ccc1nc32 [Example 521, 6-fluoro-~{N}-[(3~ {S},4~{S})-4-fluoro-3-piperidyl]-1-methyl-2-[(2~{R},5~{R},7~ {S},9~{Z})-2-methyl-4-oxo-3,13,19-triazatetracyclo[11.5.2.0^ {5,7}.0^{16,20}]icosa-1(19),9,14,16(20), 17-pentaen-14-yl] benzimidazole-5-carboxamide]
17 | 86 nM | COc1cc(C(=O)N2C[C@H]3CC[C@@H]2[C@@H]3N)cc2nc(-c3cc4ccc5nc4n3CCCCCc3nccnc3C(=O)N[C@@H]5C)n(C)c12 [Example 604, (2~{R})-17-[5-[(1~{R},4~ {R},7~{R})-7-amino-2-azabicyclo[2.2.1]heptane-2-carbonyl]-7-methoxy-1-methyl-benzimidazol-2-yl]-2-methyl-3,6,9,16,22-pentazatetracyclo[14.5.2.0^ {5,10}.0^{19,23}]tricosa-1(21),5(10),6,8,17,19,22-heptaen-4-one]
18 | 39 nM | COCCn1c(-c2cc3ccc4nc3n2CCCCC[C@@H]2C[C@H]2C(=O)N[C@@H]4C)nc2cc(C(=O)N[C@H]3CNCC[C@@H]3F)c(F)cc21 [Example 422, 6-fluoro-~{N}-[(4~{S})-4-fluoro-3-piperidyl]-1-(2-methoxyethyl)-2-[(2~{R},5~{R},7~{R})-2-methyl-4-oxo-3,13,19-triazatetracyclo[11.5.2.0^{5,7}.0^{16,20}]icosa-1(18),14,16,19-tetraen-14-yl]benzimidazole-5-carboxamide]
